The values that follow come from patent US9409907B2, “Inhibitor compounds” (Cancer Research Technology Limited, priority 2012, dated 2016).

Sequence of full length MPS1 (P33981 whole entry): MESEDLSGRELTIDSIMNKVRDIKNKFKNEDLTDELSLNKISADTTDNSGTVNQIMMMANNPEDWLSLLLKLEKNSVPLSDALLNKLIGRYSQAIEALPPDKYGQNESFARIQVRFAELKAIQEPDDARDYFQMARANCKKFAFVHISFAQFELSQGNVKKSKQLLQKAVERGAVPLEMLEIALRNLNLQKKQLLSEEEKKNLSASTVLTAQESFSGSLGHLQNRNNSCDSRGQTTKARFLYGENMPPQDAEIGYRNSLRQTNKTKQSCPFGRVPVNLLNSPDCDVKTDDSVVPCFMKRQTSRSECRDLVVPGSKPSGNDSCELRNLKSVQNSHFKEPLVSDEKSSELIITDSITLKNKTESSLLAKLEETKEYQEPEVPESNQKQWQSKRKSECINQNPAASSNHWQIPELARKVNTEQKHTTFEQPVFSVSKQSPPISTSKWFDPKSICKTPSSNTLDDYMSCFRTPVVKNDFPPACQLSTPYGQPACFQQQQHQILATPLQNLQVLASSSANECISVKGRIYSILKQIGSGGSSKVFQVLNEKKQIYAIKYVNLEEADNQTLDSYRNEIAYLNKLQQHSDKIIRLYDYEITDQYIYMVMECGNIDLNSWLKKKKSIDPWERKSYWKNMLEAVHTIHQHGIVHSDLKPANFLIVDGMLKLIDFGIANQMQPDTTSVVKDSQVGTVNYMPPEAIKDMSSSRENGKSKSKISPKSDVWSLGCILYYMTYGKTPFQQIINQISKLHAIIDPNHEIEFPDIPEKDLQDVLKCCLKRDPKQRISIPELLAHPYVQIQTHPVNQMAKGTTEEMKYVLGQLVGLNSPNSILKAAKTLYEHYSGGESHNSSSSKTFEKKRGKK

The target in the assay is full length MPS1 (Homo sapiens (Human), UniProt P33981). Description: Measurement of inhibition of MPS1 kinase (Caliper EZ reader mobility-shift enzyme assay). In kind it is biochemical. The following applies: full length MPS1 12.5 nM or 3 nM, H236 peptide 5 μM, ATP 10 μM, 60 min at room temperature. The procedure:
Measurement of Inhibition of MPS1 Kinase
The reaction was carried out for 60 min at room temperature and stopped by the addition of buffer (10 μl) containing 20 mM EDTA, 0.05% (v/v) Brij-35, in 0.1M HEPES-buffered saline (Free acid, Sigma, UK). The plate was read on a Caliper EZ reader II (Caliper Life Sciences).
The % inhibition of the compounds is calculated relative to the means of selected control wells.
With `COc1cc(-c2cnn(C)c2)ccc1Nc1ncc2ccnc(N(C)C3CCCC3)c2n1` [Example 59, N8-cyclopentyl-N2-(2-methoxy-4-(1-methyl-1H-pyrazol-4-yl)phenyl)-N8-methylpyrido[3,4-d]pyrimidine-2,8-diamine], the concentration for half-maximal inhibition (IC50) (in general, the point on the concentration scale where inhibition reaches its midpoint) amounted to 45 nM. For the compound `COc1cc(-c2cnn(C)c2)ccc1Nc1ncc2ccnc(NCC3(O)CCC3)c2n1` [Example 89, 1-((2-(2-methoxy-4-(1-methyl-1H-pyrazol-4-yl)phenylamino)pyrido[3,4-d]pyrimidin-8-ylamino)methyl)cyclobutanol], the IC50 amounted to 7 nM. Consider `COc1cc(-c2cnn(C)c2)ccc1Nc1ncc2ccnc(N3CCOCC3)c2n1` [Example 61, N-(2-methoxy-4-(1-methyl-1H-pyrazol-4-yl)phenyl)-8-morpholinopyrido[3,4-d]pyrimidin-2-amine], for which the IC50 came to 3 nM. As to `COc1cc(-c2cnn(C)c2)ccc1Nc1ncc2ccnc(NC(C)C3CC3)c2n1` (centres unmarked) [Example 75, N8-(1-cyclopropylethyl)-N2-(2-methoxy-4-(1-methyl-1H-pyrazol-4-yl)phenyl)pyrido[3,4-d]pyrimidine-2,8-diamine], the IC50 came to 4 nM. With `COc1cc(-c2cnc(C)n2C)ccc1Nc1ncc2ccnc(NCC(C)(C)C)c2n1` [Example 50, N2-(4-(1,2-dimethyl-1H-imidazol-5-yl)-2-methoxyphenyl)-N8-neopentylpyrido[3,4-d]pyrimidine-2,8-diamine], the IC50 amounted to 7 nM.

For the compound `COc1cc(-c2cnn(C)c2)ccc1Nc1ncc2ccnc(N3CCOC(CO)C3)c2n1` (centres unmarked) [Example 135, (4-(2-(2-Methoxy-4-(1-methyl-1H-pyrazol-4-yl)phenylamino)pyrido[3,4-d]pyrimidin-8-yl)morpholin-2-yl)methanol], the 50% inhibitory concentration (IC50) was determined as 4 nM. Consider `COc1cc(-c2cnc(C)n2C)ccc1Nc1ncc2ccnc(-c3cnn(C)c3)c2n1` [Example 40, N-(4-(1,2-dimethyl-1H-imidazol-5-yl)-2-methoxyphenyl)-8-(1-methyl-1H-pyrazol-4-yl)pyrido[3,4-d]pyrimidin-2-amine], for which the IC50 is 4 nM. Consider `COc1cc(-c2cnn(C)c2)ccc1Nc1ncc2ccnc(N[S+]([O-])C(C)(C)C)c2n1` (racemic) [Example 143, (±)-N-(2-(2-methoxy-4-(1-methyl-1H-pyrazol-4-yl)phenylamino)pyrido[3,4-d]pyrimidin-8-yl)-2-methylpropane-2-sulfinamide], for which the IC50 is 5 nM. Turning to `COCCNc1nccc2cnc(Nc3ccc(-c4cnn(C)c4)cc3OC)nc12` [Example 127, N^2-(2-Methoxy-4-(1-methyl-1H-pyrazol-4-yl)phenyl)-N^8-(2-methoxyethyl)pyrido[3,4-d]pyrimidine-2,8-diamine], the IC50 was found to be 8 nM. `COc1cc(-c2cnn(C)c2)ccc1Nc1ncc2ccnc(NC[C@]3(C)CCOC3)c2n1` [Example 141, (S)—N^2-(2-methoxy-4-(1-methyl-1H-pyrazol-4-yl)phenyl)-N^3-((3-methyltetrahydrofuran-3-yl)methyl)pyrido[3,4-d]pyrimidine-2,8-diamine]: the IC50 was determined as 3 nM.

With `Cc1ncc(-c2ccc(Nc3cc4c(-c5cnn(C)c5)cccc4cn3)c(Cl)c2)n1C` [Example 11, N-(2-chloro-4-(1,2-dimethyl-1H-imidazol-5-yl)phenyl)-5-(1-methyl-1H-pyrazol-4-yl)isoquinolin-3-amine], the IC50 came to 6 nM. The same measure for `CN(C)C(=O)c1ccc(Nc2cc3c(-c4cnn(C)c4)cccc3cn2)c(Cl)c1` [Example 26]: 78 nM; for `COc1cc(-c2cnn(C)c2)ccc1Nc1ncc2ccnc(N3CCC(C#N)CC3)c2n1` [Example 140, 1-(2-(2-Methoxy-4-(1-methyl-1H-pyrazol-4-yl)phenylamino)pyrido[3,4-d]pyrimidin-8yl)piperidine-4-carbonitrile]: 4 nM; for `COc1cc(-c2nncn2C)ccc1Nc1ncc2c(C)cnc(NCC3(C)COC3)c2n1` [Example 155, N^2-(2-methoxy-4-(4-methyl-4H-1,2,4-triazol-3-yl)phenyl)-5-methyl-N^8-((3-methyloxetan-3-yl)methyl)pyrido[3,4-d]pyrimidine-2,8-diamine]: 4 nM. Take `COc1cc(N2CCN(C)CC2)ccc1Nc1ncc2ccnc(NCC(C)(C)C)c2n1` [Example 173, N2-(2-methoxy-4-(4-methylpiperazin-1-yl)phenyl)-N8-neopentylpyrido[3,4-d]pyrimidine-2,8-diamine]: the IC50 stood at 4 nM. In the case of `COc1cc(-c2cnn(C)c2)ccc1Nc1ncc2ccnc(NC(C)C3CCOC3)c2n1` (racemic) [Example 125, Racemic N^2-(2-methoxy-4-(1-methyl-1H-pyrazol-4-yl)phenyl)-N^8-(1-(tetrahydrofuran-3-yl)ethyl)pyrido[3,4-d]pyrimidine-2,8-diamine], the IC50 was 3 nM.

With `COc1cc(-c2cnn(C)c2)ccc1Nc1ncc2ccnc(-c3cnn(CC(F)F)c3)c2n1` [Example 93, 8-(1-(2,2-difluoroethyl)-1H-pyrazol-4-yl)-N-(2-methoxy-4-(1-methyl-1H-pyrazol-4-yl)phenyl)pyrido[3,4-d]pyrimidin-2-amine], the IC50 was 10 nM.

In the case of `COc1cc(N2CCN(S(C)(=O)=O)CC2)ccc1Nc1ncc2ccnc(NCC(C)(C)C)c2n1` [Example 176, N2-(2-methoxy-4-(4-(methylsulfonyl)piperazin-1-yl)phenyl)-N8-neopentylpyrido[3,4-d]pyrimidine-2,8-diamine], the IC50 was 3 nM. Regarding `COc1cc(-c2cnn(C)c2)ccc1Nc1ncc2ccnc(NC(C)CO)c2n1` (racemic) [Example 129, Racemic 2-(2-(2-Methoxy-4-(1-methyl-1H-pyrazol-4-yl)phenylamino)pyrido[3,4-d]pyrimidin-8-ylamino)propan-1-ol], the IC50 is 7 nM. On to `COc1cc(-c2cnn(C)c2)ccc1Nc1ncc2ccnc(NCC(F)(F)F)c2n1` [Example 87, N2-(2-methoxy-4-(1-methyl-1H-pyrazol-4-yl)phenyl)-N8-(2,2,2-trifluoroethyl)pyrido[3,4-d]pyrimidine-2,8-diamine], for which the IC50 is 75 nM.

In the case of `CCc1cc(-c2cnn(C)c2)ccc1Nc1ncc2ccnc(NCC(C)(C)C)c2n1` [Example 168, N2-(2-ethyl-4-(1-methyl-1H-pyrazol-4-yl)phenyl)-N8-neopentylpyrido[3,4-d]pyrimidine-2,8-diamine], the IC50 was 27 nM. For `COc1cc(OC2CCN(C)CC2)ccc1Nc1cc2c(-c3cnn(C)c3)cccc2cn1` [Example 29, N-(2-Methoxy-4-((1-methylpiperidin-4-yl)oxy)phenyl)-5-(1-methyl-1H-pyrazol-4-yl)isoquinolin-3-amine], the half-inhibitory concentration (IC50) turned out to be 17 nM.

On to `COC(C)(C)CNc1nccc2cnc(Nc3ccc(F)cc3OC(F)F)nc12` [Example 203], for which the IC50 is 46 nM. As for `COc1cc(C(=O)N2CC(OC)C2)ccc1Nc1cc2c(-c3cccnc3)cccc2cn1` [Example 21, (3-Methoxy-4-((5-(pyridin-3-yl)isoquinolin-3-yl)amino)phenyl)(3-methoxyazetidin-1-yl)methanone], the IC50 worked out at 30 nM.

On to `COc1cc(-c2cnc(C)n2C)ccc1Nc1cc2c(-c3cnn(C)c3)cccc2cn1` [Example 10, N-(4-(1,2-dimethyl-1H-imidazol-5-yl)-2-methoxyphenyl)-5-(1-methyl-1H-pyrazol-4-yl)isoquinolin-3-amine], for which the IC50 amounted to 6 nM. Take `COc1cc(C(=O)N2CC(OC)C2)ccc1Nc1cc2c(-c3ccnn3C)cccc2cn1` [Example 9, (3-methoxy-4-((5-(1-methyl-1H-pyrazol-5-yl)isoquinolin-3-yl)amino)phenyl)(3-methoxyazetidin-1-yl)methanone]: the IC50 worked out at 22 nM. For the compound `COc1cc(C(=O)N2CC(OC)C2)ccc1Nc1cc2c(-c3cncn3C)cccc2cn1` [Example 4, (3-methoxy-4-((5-(1-methyl-1H-imidazol-5-yl)isoquinolin-3-yl)amino)phenyl)(3-methoxyazetidin-1-yl)methanone], the IC50 is 112 nM. `Clc1ccc(Nc2ncc3ccnc(N4CCC5(COC5)C4)c3n2)c(Cl)c1` [Example 207]: the IC50 amounted to 94 nM. Regarding `COc1cc(-c2cnn(C)c2)ccc1Nc1ncc2ccnc(NCC3(F)COC3)c2n1` [Example 124, N^8-((3-fluorooexetan-3-yl)methyl)-N^2-(2-methoxy-4-(1-methyl-1H-pyrazol-4-yl)phenyl)pyrido[3,4-d]pyrimidine-2,8-diamine], the IC50 is greater than 1000 nM.

In the case of `COc1cc(-c2cnn(C)c2)ccc1Nc1ncc2ccnc(N3CC4(COC4)C3)c2n1` [Example 115, N-(2-methoxy-4-(1-methyl-1H-pyrazol-4-yl)phenyl)-8-(2-oxa-6-azaspiro[3.3]heptan-6-yl)pyrido[3,4-d]pyrimidin-2-amine], the IC50 came out at 3 nM. For the compound `COc1cc(-c2cn(C)nc2C)ccc1Nc1ncc2cc(C)nc(NCC(C)(C)OC)c2n1` [Example 192], the IC50 came out at 5 nM.

Take `COc1cc(-c2cnn(C)c2CO)ccc1Nc1ncc2cc(C)nc(NCC(C)(C)OC)c2n1` [Example 198]: the IC50 is 9 nM. To `COc1cc(-c2cnn(C)c2)ccc1Nc1ncc2cc(C)nc(NCC(C)(C)C)c2n1` [Example 51, N^2-(2-methoxy-4-(1-methyl-1H-pyrazol-4-yl)phenyl)-6-methyl-N8-neopentylpyrido[3,4-d]pyrimidine-2,8-diamine] belongs 29 nM; to `COc1cc(-c2cnc(C)n2C)ccc1Nc1ncc2cc(C)nc(NCC(C)(C)OC)c2n1` [Example 158], 3 nM. Consider `COc1cc(-c2cnn(C)c2)ccc1Nc1ncc2ccnc(N3CCN(S(C)(=O)=O)CC3)c2n1` [Example 139, N-(2-Methoxy-4-(1-methyl-1H-pyrazol-4-yl)phenyl)-8-(4-(methylsulfonyl)piperazin-1-yl)pyrido[3,4-d]pyrimidin-2-amine], for which the IC50 came to 6 nM.
